Source: patent US5646188A, “Polyamine derivatives of 1-aminoindan” (priority 1995, dated 1997)
Where two headings read alike, the source gives them in different places.

How the values were obtained:
[1] = test system: pyramidal neurons throughout the CA1 layer of the anterior hippocampus; assay: Global Brain Ischemia In Gerbils; format: in vivo, mongolian gerbils; settings: Meriones unguiculatus, Pyramidal neuron, 336 h, read-out: PERCENT PROTECTION
Method: Male mongolian gerbils, aged 2.5-5 months, housed 4-8 in a cage, were supplied freely with food and water and maintained at 24° C. with a 12 hour day/night cycle.
For surgery the animals were anesthetized with halothane (1.5% in 100% O2) and the common carotid arteries exposed bilaterally through a midline ventral neck incision. Each artery was clamped for 5 minutes with aneurysm clips to produce global brain ischemia. The anesthesia was discontinued upon clamping. After 5 minutes the clamps were removed and the wound closed with skin clips.
For treatment, the test compound or vehicle was injected intra-peritoneally(ip) in a volume of 50 microlitres of solvent per 10 g body weight. The first injection was given two minutes after clamp removal, and thereafter daily for the next 2 post-operative days (total of 3 injections).
Seven groups each of 4-8 animals were compared:
I. Control; (sham- or unoperated and saline treated),
II. Vehicle treated, unoperated (when solvent is other than saline),
III. Ischemia--untreated or saline treated),
IV. Ischemia--vehicle treated (when solvent is other than saline),
V. Ischemia--Test compound treated, one sub-group per concentration tested,
VI. Ischemia and pentobarbital (40 mg/kg) as positive control).
Analysis of neuronal damage was performed 14 days post-ischemia by counting pyramidal neurons throughout the CA1 layer of the anterior hippocampus in […] thick (paraffin) coronal brain sections stained with hematoxylin and erosin.
Percent Protection values represent the fraction of hippocampi protected from ischemia in a group of animals treated with the stated dose of compound.

[2] = test system: Cultures of Dissociated Neonatal Rat Cerebellum; assay: Reversal of NMDA Induced Cell Death in cultures of dissociated neonatal rat cerebellum; format: cell-based; settings: for PERCENT PROTECTION: cell survival minus the NMDA effect (30%); for viability at 0.005 µM: 0.005 μM + NMDA (1 mM, 3 hours); for viability at 0.01 µM: 0.010 μM + NMDA (1 mM, 3 hours); for viability at 0.1 µM: 0.100 μM + NMDA (1 mM, 3 hours); for viability at 1 µM: 1.000 μM + NMDA (1 mM, 3 hours)
Method: (§1) The cerebellum was aseptically dissociated from 6 or 7-day old rat pups and placed in a 15 ml sterile plastic conical tube containing 3 ml of Dulbecco's modified Eagle's medium (DMEM) with a high glucose concentration ([…]) and 2 mM (v/v) L-glutamine and an antibiotic antimitotic mixture. The cerebella were then dissociated after 20-25 passages through a sterile 13 gauge, 10 cm long stainless steel needle attached to a 5 ml syringe with an inserted 45 micrometer pore nylon sieve. The dissociated cells were centrifuged at 200 g for 5 minutes.
Cells were plated at a density of 200/mm^2 on poly-L-lysine coated surfaces. […] The plated cells were covered with enriched medium and incubated at 37° C. in an atmosphere of 5% CO2 in air and 97% humidity. […] Each test compound was tested in duplicate. Toxic-dose response was determined for each compound over a range from 0.005-1000 micromole. Four groups were run in each set of experiments;
I. Control, consisting of enriched media alone,
II. N-methyl-D-aspartate (NMDA, 1 mM for 3 hours) as the cytotoxic challenge,
III. Test compound plus NMDA, and
IV. Positive control, spermine, spermidine or putrescine (0.01 micromoles) plus NMDA.
Surviving cells in Culture are measured relative to control (100%) as described above. Percent protection is the Cell Survival for the test compound minus the NMDA effect. […] The Effective Protection was calculated as the percent of the Percent Protection (X) divided by the maximal protection value (e.g. X×100/70).

[3] = in vitro; settings: rat, cerebellum cell culture
Method: as §1, with “minutes. […] Cell viability was determined by the tryptan blue exclusion test.” for “minutes.”
Cells were plated at a density of 200/mm^2 on poly-L-lysine coated surfaces. Poly-L-lysine coated glass coverslips were prepared at least one hour in advance of plating by immersing sterile coverslips in sterile distilled water solution containing 15 microgram/ml poly-L-lysine, and washing in sterile water just prior. to use. […] After three days in culture, the media was replaced with media containing the desired test compound. Each test compound was tested in duplicate. Toxic-dose response was determined for each compound over a range from 0.005-1000 micromole. Four groups were run in each set of experiments;
Nerve cell survival was evaluated by phase contrast microscopy and tryptan blue staining after 24 hours.
Toxic dose-response curves were compiled using the protocol described above.

[4] = test system: ischemia induced nerve cell death; settings: gerbils; Gilad G et al.; cited from earlier work
[5] = ip, 10.0 mg/kg ip, 3 daily injections, 14 days post-ischemia, fraction of hippocampi protected
[6] = Rattus norvegicus, 24 hours, read-out: SURVIVING CELL IN CULTURE (relative to control, 100%)
[7] = ip, 1.0 mg/kg ip, 3 daily injections, 14 days post-ischemia, fraction of hippocampi protected
[8] = positive control, 0.01 micromoles + NMDA

Row | Structure (SMILES) | responders at 10 mg/kg [1, 5] [%] | PERCENT PROTECTION ([2]; 0.005 μM + NMDA) [%] | PERCENT PROTECTION ([2]; 0.010 μM + NMDA) [%] | PERCENT PROTECTION ([2]; 0.100 μM + NMDA) [%] | viability at 0.005 µM [2, 6] [%] | viability at 0.01 µM [2, 6] [%] | viability at 0.1 µM [2, 6] [%] | CC50 at 24 h [3] [µM] | responders at 1 mg/kg [1, 7] [%] | further results
1 | NCCCCNCCCNC1CCc2ccccc21 (stereo not shown) [Compound 2720] | 58 | 42 | 8 | 2 | 72 | 38 | 32 | 0.2 |  | 
2 | N[C@H]1CCc2ccccc21 [(S)-1-aminoindan, reference compound] |  |  |  |  |  |  |  |  |  | responders at 0.1 mg/kg ([1]; ip): 0%; responders at 1 mg/kg ([1]; ip): 50%; responders at 10 mg/kg ([1]; ip): 75%
3 | NCCCNCCCCNCCCNC1CCc2ccccc21 (stereo not shown) [Compound 2721] | 67 | -2 | -4 |  | 28 | 26 |  | 1 | 12 | 
4 | N[C@@H]1C[C@@H](N)c2ccccc21 (relative stereo) [Compound 2716, trans 1,3-diaminoindan] | 0 | 35 | 0 | -5 | 65 | 30 | 25 | 0.7 | 50 | PERCENT PROTECTION ([2]; 1.000 μM + NMDA): 0%; viability at 1 µM [2, 6]: 30%
5 | NCCCCN(CCCN)C1CCc2ccccc21 (stereo not shown) [Compound 2722, N-(4-amino-n-butyl)-N-(3-amino-n-propyl)-1-aminoindan] | 25 | 85 | 57 |  | 115 | 87 |  | 20 | 50 | 
6 | NCCCCNCCCNCCCCNC1CCc2ccccc21 (stereo not shown) [Compound 2725] | 25 | 42 | 8 | 2 | 72 | 38 | 32 | 20 | 0 | 
7 | NCCCCN(CCCCN)C1CCCc2ccccc21 (stereo not shown) [Compound 2728, N,N-di(4-amino-n-butyl)-1-amino-1,2,3,4-tetrahydronaphthalene] |  | -10 | 56 |  | 20 | 86 |  | 0.25 |  | responders at 1 mg/kg ([1]; ip): 20%
8 | N[C@@H]1C[C@H](N)c2ccccc21 [Compound 2715, cis 1,3-diaminoindan] | 50 | 19 |  | 12 | 49 |  | 42 | 10 |  | responders at 1 mg/kg ([1]; ip): 75%; PERCENT PROTECTION ([2]; 1.000 μM + NMDA): 2%; viability at 1 µM [2, 6]: 32%
9 | NCCCCN [Putrescine, putrescine, reference compound] |  |  |  |  |  |  |  | 300 |  | responders at 10 mg/kg ([1]; 10.0 mg/kg ip, 3 daily injections, 14 days post-ischemia, fraction of hippocampi protected): 41%; PERCENT PROTECTION [2, 8]: 0%; protecting against ischemia induced nerve cell death [4]: activity
10 | NCCCCNC1CCc2ccccc21 (stereo not shown) [Compound 2710] | 37 |  |  | 42 |  |  | 72 | 30 | 25 | PERCENT PROTECTION ([2]; 1.000 μM + NMDA): 40%; viability at 1 µM [2, 6]: 70%
11 | CCCC(C)C1(CC)C(=O)NC(=O)NC1=O (stereo not shown) [Pentobarbital, pentobarbital, reference compound] |  |  |  |  |  |  |  |  |  | responders at 40 mg/kg ([1]; ip): 87.5%
12 | NCCCNCCCCNC1CCc2ccccc21 (stereo not shown) [Compound 2724] | 56 | 65 | 57 |  | 95 | 87 |  | 4 | 12 | 
13 | NCCCCN(CCCCN)[C@@H]1CCc2ccccc21 [Compound 2726, (R)-N,N-di(4-amino-n-butyl)-1-aminoindan] | 50 | 99 | 25 |  | 129 | 55 |  | 1.7 |  | 
14 | NCCCNCCCCNCCCN [Spermine, spermine, reference compound] |  |  |  |  |  |  |  | 2 |  | responders at 10 mg/kg ([1]; ip): 60%; PERCENT PROTECTION [2, 8]: 38%; protecting against ischemia induced nerve cell death [4]: activity
15 | NCCCNC1CCc2ccccc21 (stereo not shown) [Compound 2709, N-(3-aminopropyl)-1-aminoindan] | 31 | -4 | 23 | 29 | 26 | 53 | 59 | 50 | 12 | PERCENT PROTECTION ([2]; 1.000 μM + NMDA): 13%; PERCENT PROTECTION ([2]; 10.00 μM + NMDA): 8%; viability at 1 µM [2, 6]: 43%; viability at 10 µM ([2]; Rattus norvegicus, 10.00 μM + NMDA (1 mM, 3 hours), 24 hours, read-out: SURVIVING CELL IN CULTURE (relative to control, 100%)): 38%
16 | NCCCCN(CCCCN)[C@H]1CCc2ccccc21 [Compound 2727, (S)-N,N-di(4-amino-n-butyl)-1-aminoindan] | 28.5 | 0 | 25 |  | 30 | 55 |  | 0.4 |  | 
17 | NCCCCN(CCCCN)C1CCc2ccccc21 (racemic) [Compound 2711, racemic N,N-di(4-amino-n-butyl)-1-aminoindan] | 86 | 44 | 38 | 32 | 74 | 68 | 62 | 60 |  | responders at 1 mg/kg ([1]; ip): 50%
18 | N[C@@H]1CCc2ccccc21 [(R)-1-aminoindan, reference compound] |  | 50 | 0 | -2 |  |  |  | 175 |  | responders at 0.1 mg/kg ([1]; ip): 25%; responders at 1 mg/kg ([1]; ip): 25%; responders at 10 mg/kg ([1]; ip): 25%
